Literature values in patent US20070178049A1, “Systems and methods for the delivery of corticosteroids having an enhanced pharmacokinetic profile” (Verus Pharmaceuticals, Inc., priority 2005, published 2007).

Structure (SMILES): CCCC1O[C@@H]2C[C@H]3[C@@H]4CCC5=CC(=O)C=C[C@]5(C)[C@H]4[C@@H](O)C[C@]3(C)[C@]2(C(=O)CO)O1 (stereo partly drawn) [budesonide, (R, S)-11β,16α,17,21-tetrahydroxypregna-1,4-diene-3,20-dione cyclic 16,17-acetal with butyraldehyde]
- solubility in alcohols (alcohols): readily soluble
- solubility in water (water): virtually insoluble
